Source: US20220220527A1, “METHOD FOR MEASURING THE ACTIVITY OF A CULTURE OF MICROALGAE” (TotalEnergies SE, priority 2019, published 2022)

Tested on: aerobic bacteria
Test: Dissolved oxygen measurement in an illuminated microalgae-bacteria culture sample with successive additions of substrate and inhibitor (Example 2, FIG. 4)
Format: cell-based
Conditions: culture of Nannochloropsis oculata sp. 0.3 g/L and aerobic bacteria 0.05 g/L
Experimental: A sample of a culture comprising microalgae of the type Nannochloropsis oculata sp. in a concentration of 0.3 g/L. and aerobic bacteria in a concentration of 0.05 g/L was transferred from a bioreactor to a chamber having a volume of 300 mL and comprising a magnetic stirrer and a source for emitting light. The source for emitting light comprised light-emitting diode strings located around the chamber.
During the whole experiment, the chamber was provided with light. In other words, several illumination steps were carried out successively, in order to conduct, during each illumination step, the measurement of the dissolved oxygen present in the sample. This measurement was carried out with a Luminescent Dissolved Oxygen (LDO) sensor (HACH) inserted in the chamber. After each illumination step, the sample was returned to the bioreactor and replaced with a new sample.
More particularly, after point 11, a total amount of 70 mg/L of CuSO4 was added to the sample.

O=S(=O)([O-])[O-].[Cu+2] [CuSO4]
effect on the activity of bacteria (oxygen production rate of the sample) (successive additions 1 to 11, total 70 mg/L CuSO4 after point 11): increasing inhibitory effect

CCO [ethanol]
effect on the activity of bacteria (dissolved oxygen concentration, oxygen consumption by respiration) (after each addition (1 to 11) of substrate): increases the activity of bacteria
